Results taken from patent publication US20050192347A1, “Urea and thiourea compounds and compositions for cholesterol management and related uses” (priority 2003, published 2005).

Legend:
[1] = tested on: primary rat hepatocytes; experiment: Inhibition of lipid synthesis ([1-14C]-acetate incorporation) in primary cultures of rat hepatocytes; format: cell-based; details: 0-300 μM
Procedure: Compounds were tested for inhibition of lipid synthesis in primary cultures of rat hepatocytes. Male Sprague-Dawley rats were anesthetized with intraperitoneal injection of sodium pentobarbital (80 mg/kg). Rat hepatocytes were isolated essentially as described by the method of Seglen (Seglen, P. O. Hepatocyte suspensions and cultures as tools in experimental carcinogenesis. J. Toxicol. Environ. Health 1979, 5, 551-560). Hepatocytes were suspended in Dulbecco's Modified Eagles Medium containing 25 mM D-glucose, 14 mM HEPES, 5 mM L-glutamine, 5 mM leucine, 5 mM alanine, 10 mM lactate, 1 mM pyruvate, 0.2% bovine serum albumin, 17.4 mM non-essential amino acids, 20% fetal bovine serum, 100 nM insulin and 20 μg/mL gentamycin) and plated at a density of 1.5×10^5 cells/cm^2 on collagen-coated 96-well plates. Four hours after plating, media was replaced with the same media without serum. Cells were grown overnight to allow formation of monolayer cultures. Lipid synthesis incubation conditions were initially assessed to ensure the linearity of [1-^14C]-acetate incorporation into hepatocyte lipids for up to 4 hours. Hepatocyte lipid synthesis inhibitory activity was assessed during incubations in the presence of 0.25 μCi [1-^14C]-acetate/well (final radiospecific activity in assay is 1 Ci/mol) and 0, 1, 3, 10, 30, 100 or 300 μM of compounds for 4 hours. At the end of the 4-hour incubation period, medium was discarded and cells were washed twice with ice-cold phosphate buffered saline and stored frozen prior to analysis. To determine total lipid synthesis, 170 μl of MicroScint-E® and 50 μl water was added to each well to extract and partition the lipid soluble products to the upper organic phase containing the scintillant. Lipid radioactivity was assessed by scintillation spectroscopy in a Packard TopCount NXT.

[2] = tested on: obese female Zucker rats; experiment: Oral daily treatment of obese female Zucker rats for fourteen days: serum lipids, glycemic control indicators, body weight; format: in vivo, rat; details: 14 days; for Glucose, Percent Change from Pre-treatment: blood, 6-hour fast; for Glucose, Percent Change from Pre-treatment / BHA, Percent Change from Pre-treatment / NEFA, Percent Change from Pre-treatment / HDL-C/nonHDL-C / HDL-C, Percent Change from Pre-treatment / Insulin, Percent Change from Pre-treatment / Non HDL-C, Percent Change from Pre-treatment / TC, Percent Change from Pre-treatment / TG, Percent Change from Pre-treatment: oral; for % wt. gain: oral gavage; for BHA, Percent Change from Pre-treatment: serum beta hydroxy butyric acid; for NEFA, Percent Change from Pre-treatment: serum non-esterified fatty acids; for HDL-C/nonHDL-C: serum ratio; for HDL-C, Percent Change from Pre-treatment / Insulin, Percent Change from Pre-treatment / Non HDL-C, Percent Change from Pre-treatment / TC, Percent Change from Pre-treatment / TG, Percent Change from Pre-treatment: serum
Procedure: In a number of different experiments, illustrative compounds A and A1 of the invention were administered daily at a dose of up to 100 mg/kg to chow-fed obese female Zucker rats for fourteen days in the morning by oral gavage in 1.5% carboxymethylcellulose/0.2% Tween-20 or 20% ethanol/80% polyethylene glycol (dosing vehicles). Animals were weighed daily. Animals were allowed free access to rodent chow and water throughout the study except on days of blood sampling where food was restricted for six hours prior to blood sampling. Blood glucose was determined after the 6-hour fast in the afternoon without anesthesia from a tail vein. Serum was also prepared from pretreatment blood samples subsequently obtained from the orbital venous plexus (with O2/CO2 anesthesia) and following the fourteenth dose at sacrifice from the heart following O2/CO2 anesthesia. Serums were assayed for lipoprotein cholesterol profiles, triglycerides, total cholesterol, NonHDL cholesterol, HDL cholesterol, the ratio of HDL cholesterol to that of Non-HDL cholesterol, insulin, non-esterified fatty acids, and beta hydroxy butyric acid. The percent body weight gain and the ratio of liver to body weight was also determined. These are shown as absolute values or as a percent change of the pretreatment values in Table 4. [drawing 300]

[3] = Rattus norvegicus, Hepatocyte, 4 h

CC(CO)(CCCCCNC(=O)NCCCCC(C)(CO)c1ccccc1)c1ccccc1 (centres unmarked) [Compound 226, 1-(6-Hydroxy-5-methyl-5-phenylhexyl)-3-(7-hydroxy-6-methyl-6-phenylheptyl)urea]
IC50 [1, 3]: 88 µM

CCOC(=O)CCCCCNC(=O)NCCCCC(C)(C)CO [Compound 219, Ethyl 6-(3-(6-hydroxy-5,5-dimethylhexyl)ureido)hexanoate]
IC50 [1, 3]: 82 µM

CC(CO)(CCCCNC(=O)NCCCc1ccccc1)c1ccccc1 (centres unmarked) [Compound 223, 1-(6-Hydroxy-5-methyl-5-phenylhexyl)-3-(3-phenylpropyl)urea]
IC50 ([1]; 4 hours): 77 µM | IC50 [1, 3]: 137 µM

CC(CO)(CCCCCNC(=O)NCCCCCC(C)(CO)c1ccccc1)c1ccccc1 (centres unmarked) [Compound 231, 1,3-Bis(7-hydroxy-6-methyl-6-phenylheptyl)urea]
IC50 [1, 3]: 39 µM

CC(C)(CO)CCCCNC(=O)NCCCCC(C)(CO)c1ccccc1 (centres unmarked) [Compound 220, 1-(6-Hydroxy-5,5-dimethylhexyl)-3-(6-hydroxy-5-methyl-5-phenylhexyl)urea]
IC50 [1, 3]: 8.8 µM

CC(C)(CO)CCCCNC(=O)NCCCCc1ccccc1 [Compound 217, 1-(6-Hydroxy-5,5-dimethylhexyl)-3-(4-phenylbutyl)urea]
IC50 [1, 3]: 221 µM

CC(C)(CO)CCCCNC(=S)NCCCCC(C)(C)CO [Compound A1, 1,3-bis-(6-hydroxy-5,5-dimethylhexyl)-thiourea]
Glucose, Percent Change from Pre-treatment ([2]; 30 mg/kg/day): −4% | Glucose, Percent Change from Pre-treatment ([2]; 100 mg/kg/day): −15% | % wt. gain ([2]; 30 mg/kg/day): 10% | % wt. gain ([2]; 100 mg/kg/day): 7% | BHA, Percent Change from Pre-treatment ([2]; 30 mg/kg/day): 283% | BHA, Percent Change from Pre-treatment ([2]; 100 mg/kg/day): 305% | NEFA, Percent Change from Pre-treatment ([2]; 30 mg/kg/day): 11% | NEFA, Percent Change from Pre-treatment ([2]; 100 mg/kg/day): 34% | HDL-C/nonHDL-C ([2]; 30 mg/kg/day): 2.0 | HDL-C/nonHDL-C ([2]; 100 mg/kg/day): 1.3 | HDL-C, Percent Change from Pre-treatment ([2]; 30 mg/kg/day): −11% | Insulin, Percent Change from Pre-treatment ([2]; 30 mg/kg/day): −29% | Non HDL-C, Percent Change from Pre-treatment ([2]; 30 mg/kg/day): 32% | TC, Percent Change from Pre-treatment ([2]; 30 mg/kg/day): −9% | TG, Percent Change from Pre-treatment ([2]; 30 mg/kg/day): 7% | HDL-C, Percent Change from Pre-treatment ([2]; 100 mg/kg/day): 2% | Insulin, Percent Change from Pre-treatment ([2]; 100 mg/kg/day): 10% | Non HDL-C, Percent Change from Pre-treatment ([2]; 100 mg/kg/day): −29% | TC, Percent Change from Pre-treatment ([2]; 100 mg/kg/day): −7% | TG, Percent Change from Pre-treatment ([2]; 100 mg/kg/day): −15%

CCOC(=O)CCCCCNC(=O)NCCCCC(C)(CO)c1ccccc1 (centres unmarked) [Compound 225, Ethyl 6-(3-(6-hydroxy-5-methyl-5-phenylhexyl)ureido)hexanoate]
IC50 [1, 3]: 128 µM

CC(CO)(CCCCCNC(=O)NCCCc1ccccc1)c1ccccc1 (centres unmarked) [Compound 228, 1-(7-hydroxy-6-methyl-6-phenylheptyl)-3-(3-phenylpropyl)urea]
IC50 [1, 3]: 101 µM

CC(CO)(CCCCCNC(=O)NCCc1ccccc1)c1ccccc1 (centres unmarked) [Compound 227, 1-(7-Hydroxy-6-methyl-6-phenylheptyl)-3-phenethylurea]
IC50 [1, 3]: 223 µM

CC(C)(CO)CCCCNC(=O)NCCCCC(C)(C)CO [A, 1,3-bis-(6-hydroxy-5,5-dimethyl-hexyl)-urea]
Glucose, Percent Change from Pre-treatment ([2]; 100 mg/kg/day): 2% | % wt. gain ([2]; 100 mg/kg/day): 4% | BHA, Percent Change from Pre-treatment ([2]; 100 mg/kg/day): 172% | NEFA, Percent Change from Pre-treatment ([2]; 100 mg/kg/day): 8% | HDL-C/nonHDL-C ([2]; 100 mg/kg/day): 2.7 | HDL-C, Percent Change from Pre-treatment ([2]; 100 mg/kg/day): 92% | Insulin, Percent Change from Pre-treatment ([2]; 100 mg/kg/day): 60% | Non HDL-C, Percent Change from Pre-treatment ([2]; 100 mg/kg/day): −5% | TC, Percent Change from Pre-treatment ([2]; 100 mg/kg/day): 50% | TG, Percent Change from Pre-treatment ([2]; 100 mg/kg/day): −31%

CC(C)(CO)CCCCNC(=O)NCCCC(C)(C)CO [Compound 213, 1-(5-Hydroxy-4,4-dimethylpentyl)-3-(6-hydroxy-5,5-dimethylhexyl)urea]
IC50 [1, 3]: 34 µM

COC(=O)CCCNC(=O)NCCCCCC(C)(CO)c1ccccc1 (centres unmarked) [Compound 230]
IC50 [1, 3]: 103 µM

CC(CO)(CCCCNC(=O)NCCc1ccccc1)c1ccccc1 (centres unmarked) [Compound 222, 1-(6-Hydroxy-5-methyl-5-phenylhexyl)-3-phenethylurea]
IC50 [1, 3]: 264 µM

CC(C)(CO)CCCCNC(=O)NCCCc1ccccc1 [Compound 216, 1-(6-Hydroxy-5,5-dimethylhexyl)-3-(3-phenylpropyl)urea]
IC50 [1, 3]: 51 µM
